In patent USRE42890E1, “Furazanobenzimidazoles” (Basilea Pharmaceutica AG, priority 2003, dated 2011):
Read-outs that look alike come from different tables or passages of the source.

What was measured:
Jurkat = test: MTS proliferation assay, Jurkat; type: cell-based, human; details: 72 h incubation, read-out: MTS proliferation assay IC 50 Jurkat
In short: (§1)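 A 72 h exposure to compound (final 0.3–10 μM, four levels) was followed by 3 h MTS incubation and an A492 read.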

Jily = test: MTS proliferation assay, Jily; type: cell-based; details: 72 h incubation, read-out: MTS proliferation assay IC 50 Jily
In short: (§2)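 Proliferation is followed by MTS conversion, measured as absorbance at 492 nm. Cells are exposed for 72 h to four fixed compound concentrations (10 μM down to 0.3 μM) under 37° C, 7.5% CO2 culture conditions.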

HT1080 = test: MTS proliferation assay, HT1080; type: cell-based, human; details: HT1080, 72 h incubation, read-out: MTS proliferation assay IC 50 HT1080
In short: as §1

HeLa = test: MTS proliferation assay, HeLa; type: cell-based, human; details: 72 h incubation, read-out: MTS proliferation assay IC 50 HeLa
In short: as §1

MRC5 = test: MTS proliferation assay, MRC5; type: cell-based; details: MRC5, 72 h incubation, read-out: MTS proliferation assay IC 50 MRC5
In short: as §2

[1] = system: adherent cells or suspension cells; test: Hoechst 33342 nuclear staining (fraction of apoptotic nuclei); type: cell-based; set-up: key: 0 relating to no activity; 1 relating to weak activity comprising less than 70% of the cells; score 2 relating to strong activity comprising more than 70% of the cells

SMILES	IC50 (Jurkat) [nM]	IC50 (Jily) [nM]	Hoechst 33342 nuclear staining score ([1]; H460, conc 0.01 μm)	Hoechst 33342 nuclear staining score ([1]; H460, conc 0.1 μm)	Hoechst 33342 nuclear staining score ([1]; H460, conc 1 μm)	Hoechst 33342 nuclear staining score ([1]; HeLa, conc 0.01 μm)	Hoechst 33342 nuclear staining score ([1]; HeLa, conc 0.1 μm)	Hoechst 33342 nuclear staining score ([1]; HeLa, conc 1 μm)	Hoechst 33342 nuclear staining score ([1]; Jily, conc 0.01 μm)	Hoechst 33342 nuclear staining score ([1]; Jily, conc 0.1 μm)	Hoechst 33342 nuclear staining score ([1]; Jily, conc 1 μm)	Hoechst 33342 nuclear staining score ([1]; Jurkat, conc 0.01 μm)	Hoechst 33342 nuclear staining score ([1]; Jurkat, conc 0.1 μm)	Hoechst 33342 nuclear staining score ([1]; Jurkat, conc 1 μm)	Hoechst 33342 nuclear staining score ([1]; MRC5, conc 0.01 μm)	Hoechst 33342 nuclear staining score ([1]; MRC5, conc 0.1 μm)	Hoechst 33342 nuclear staining score ([1]; MRC5, conc 1 μm)	Hoechst 33342 nuclear staining score ([1]; PBLs, conc 0.01 μm)	Hoechst 33342 nuclear staining score ([1]; PBLs, conc 0.1 μm)	Hoechst 33342 nuclear staining score ([1]; PBLs, conc 1 μm)	other results
COCOc1ccc(C(=O)Cn2c(-c3nonc3N)nc3ccccc32)cc1OC [Example 15, 4-[1-(3-Methoxy-4-methoxymethoxy-phenacyl)-1H-benzimidazol-2-yl]-furazan-3-ylamine]	–	< 10	2 (score 2 relating to strong activity comprising more than 70% of the cells)	2 (score 2 relating to strong activity comprising more than 70% of the cells)	2 (score 2 relating to strong activity comprising more than 70% of the cells)	1 (1 relating to weak activity comprising less than 70% of the cells)	2 (score 2 relating to strong activity comprising more than 70% of the cells)	2 (score 2 relating to strong activity comprising more than 70% of the cells)	2 (score 2 relating to strong activity comprising more than 70% of the cells)	2 (score 2 relating to strong activity comprising more than 70% of the cells)	2 (score 2 relating to strong activity comprising more than 70% of the cells)	2 (score 2 relating to strong activity comprising more than 70% of the cells)	2 (score 2 relating to strong activity comprising more than 70% of the cells)	2 (score 2 relating to strong activity comprising more than 70% of the cells)	0	1 (1 relating to weak activity comprising less than 70% of the cells)	2 (score 2 relating to strong activity comprising more than 70% of the cells)	0	0	0	IC50 (Jurkat; Homo sapiens): < 10 nM; IC50 (HT1080; Homo sapiens, HT-1080): < 10 nM; IC50 (HeLa; Homo sapiens): 10 to 100 nM; IC50 (MRC5; Homo sapiens): < 10 nM
COc1ccc(C(=O)Cn2c(-c3nonc3N)nc3ccccc32)cc1OC [Example 76]	100 to 1000	10 to 100	0	1 (1 relating to weak activity comprising less than 70% of the cells)	2 (score 2 relating to strong activity comprising more than 70% of the cells)	0	0	2 (score 2 relating to strong activity comprising more than 70% of the cells)	0	2 (score 2 relating to strong activity comprising more than 70% of the cells)	2 (score 2 relating to strong activity comprising more than 70% of the cells)	0	2 (score 2 relating to strong activity comprising more than 70% of the cells)	2 (score 2 relating to strong activity comprising more than 70% of the cells)	0	0	–	0	0	0	IC50 (HT1080): 100 to 1000 nM; IC50 (HeLa): 100 to 1000 nM; IC50 (MRC5): 100 to 1000 nM

The next lines start with results.

IC50 (Jurkat) [nM]	SMILES	IC50 (Jily) [nM]	Hoechst 33342 nuclear staining score ([1]; H460, conc 0.01 μm)	Hoechst 33342 nuclear staining score ([1]; H460, conc 0.1 μm)	Hoechst 33342 nuclear staining score ([1]; H460, conc 1 μm)	Hoechst 33342 nuclear staining score ([1]; HeLa, conc 0.01 μm)	Hoechst 33342 nuclear staining score ([1]; HeLa, conc 0.1 μm)	Hoechst 33342 nuclear staining score ([1]; HeLa, conc 1 μm)	Hoechst 33342 nuclear staining score ([1]; Jily, conc 0.01 μm)	Hoechst 33342 nuclear staining score ([1]; Jily, conc 0.1 μm)	Hoechst 33342 nuclear staining score ([1]; Jily, conc 1 μm)	Hoechst 33342 nuclear staining score ([1]; Jurkat, conc 0.01 μm)	Hoechst 33342 nuclear staining score ([1]; Jurkat, conc 0.1 μm)	Hoechst 33342 nuclear staining score ([1]; Jurkat, conc 1 μm)	Hoechst 33342 nuclear staining score ([1]; MRC5, conc 0.01 μm)	Hoechst 33342 nuclear staining score ([1]; MRC5, conc 0.1 μm)	Hoechst 33342 nuclear staining score ([1]; MRC5, conc 1 μm)	Hoechst 33342 nuclear staining score ([1]; PBLs, conc 0.01 μm)	Hoechst 33342 nuclear staining score ([1]; PBLs, conc 0.1 μm)	Hoechst 33342 nuclear staining score ([1]; PBLs, conc 1 μm)	other results
10 to 100	N#CCCNc1nonc1-c1nc2ccccc2n1COc1ccc(Cl)cc1 [Example 93]	10 to 100	0	1 (1 relating to weak activity comprising less than 70% of the cells)	2 (score 2 relating to strong activity comprising more than 70% of the cells)	0	0	2 (score 2 relating to strong activity comprising more than 70% of the cells)	0	2 (score 2 relating to strong activity comprising more than 70% of the cells)	2 (score 2 relating to strong activity comprising more than 70% of the cells)	0	2 (score 2 relating to strong activity comprising more than 70% of the cells)	2 (score 2 relating to strong activity comprising more than 70% of the cells)	0	0	2 (score 2 relating to strong activity comprising more than 70% of the cells)	0	0	0	IC50 (HT1080): 100 to 1000 nM; IC50 (HeLa): 100 to 1000 nM; IC50 (MRC5): 100 to 1000 nM
< 10	Nc1ccc(C(=O)Cn2c(-c3nonc3N)nc3ccccc32)cn1 [Example 78]	< 10	2 (score 2 relating to strong activity comprising more than 70% of the cells)	2 (score 2 relating to strong activity comprising more than 70% of the cells)	2 (score 2 relating to strong activity comprising more than 70% of the cells)	2 (score 2 relating to strong activity comprising more than 70% of the cells)	2 (score 2 relating to strong activity comprising more than 70% of the cells)	2 (score 2 relating to strong activity comprising more than 70% of the cells)	2 (score 2 relating to strong activity comprising more than 70% of the cells)	2 (score 2 relating to strong activity comprising more than 70% of the cells)	2 (score 2 relating to strong activity comprising more than 70% of the cells)	2 (score 2 relating to strong activity comprising more than 70% of the cells)	2 (score 2 relating to strong activity comprising more than 70% of the cells)	2 (score 2 relating to strong activity comprising more than 70% of the cells)	1 (1 relating to weak activity comprising less than 70% of the cells)	2 (score 2 relating to strong activity comprising more than 70% of the cells)	2 (score 2 relating to strong activity comprising more than 70% of the cells)	0	0	0	IC50 (HT1080): < 10 nM; IC50 (HeLa): < 10 nM; IC50 (MRC5): < 10 nM
100 to 1000	Cc1cc2nc(-c3nonc3N)n(CC(=O)c3ccccc3)c2cc1C [Example 108]	100 to 1000	0	0	1 (1 relating to weak activity comprising less than 70% of the cells)	0	0	0	0	0	2 (score 2 relating to strong activity comprising more than 70% of the cells)	0	0	2 (score 2 relating to strong activity comprising more than 70% of the cells)	0	0	0	0	0	0	IC50 (HT1080): 100 to 1000 nM; IC50 (HeLa): 100 to 1000 nM; IC50 (MRC5): 100 to 1000 nM
